Test results reported in patent US12285459B2, “Saposin-A derived peptides and uses thereof” (CHILDREN'S MEDICAL CENTER CORPORATION, priority 2011, dated 2025).

Legend:
[1] = test system: Tsp-1 and p53 expression in prostate fibroblasts; assay: Tsp-1 and p53 expression in prostate fibroblasts treated with peptides, western blot; assay type: cell-based; settings: FIG. 2; compared with the longer peptide of the 35-40 region
Procedure: Methods of assaying the effects of a polypeptide described herein on Tsp-1 and p53 expression are described herein. Briefly, a control Psap alongside a test polypeptide, is applied to a cell culture of prostate fibroblasts. The conditioned media from PC3M-LN4 (LN4) and PC3 cells are used as controls, with PC3 as positive/stimulating control and LN4 as negative/inhibiting controls. After a period of incubation (˜16 h), the cells are harvested, rinsed, and lysed. The lysates are analyzed for the level of Tsp-1 and p53 expression by western blot analyses, with β-actin as the internal lysate protein loading control.
These peptides were used to treat prostate and lung fibroblasts in vitro at a concentration of 10 ug/mL for 16 hours in ATCC-specified media supplemented with 0.1% FBS. Tsp-1 and p53 expression was analyzed by western blot as described previously (Kang, Y., et al., (2003) Cancer Cell 3:537-549.)

[2] = test system: Tsp-1 expression in Gr1+ cells; assay: Tsp-1 in Gr1+ cells in lungs of mice given PC3M-LN4 CM plus peptide; assay type: in vivo, C57BL/6J mice
Procedure: CM from PC3M-LN4 cells cultured in serum-free medium for 24 hours was harvested, centrifuged and filtered through […] pore-size filters to remove any cells or cell debris. Wild-type C57BL/6J mice were treated with 200 μL serum-free conditioned media from PC3M-LN4 cells daily for 6 days via intraperitoneal (i.p.) injection in combination with DWLPK (SEQ ID NO: 4) peptide or scrambled peptide.
Animals were euthanized at the end of experiments and lungs were quickly perfused by injecting 5 ml of cold PBS through the right ventricle of the heart. One part of the lung from each animal was fixed in 3.7% formalin and the other part was sorted by flow cytometry for either protein or RNA extraction.
For microscopy, following formalin fixation, tissues were cryoembedded in Tissue-Tek O.C.T. embedding compound (Electron Microscopy Sciences). Sections (30 μm) were washed 3 times in PBS and incubated in blocking/permeabilization buffer (PBS+2 mM EDTA, 1% BSA, 1% Goat Serum, 0.05% Triton X-100). […]
Total RNA from flow cytometry sorted cells was extracted using the PicoPure RNA extraction kit (Arcturus) following the manufacturer's protocol. […] The relative abundance of each transcript compared with the control was calculated utilizing the delta-Ct method.

[3] = test system: Lewis Lung Carcinoma cells; assay: Lewis Lung Carcinoma tail vein lung metastasis model, bioluminescence; assay type: in vivo, C57Bl6 mice
Procedure: C57Bl6 mice were injected with 1×10^6 Lewis Lung Carcinoma cells via tail vein. After 10 days the animals were treated with either PBS or a peptide corresponding to residues 36-40 of saposin A at a dose of 30 mg/kg/day via i.p. injection. After 16 days of treatment all animals were sacrificed, lungs were weighed and harvested. Tissues were either fixed in NBF, or lysed and analyzed for Tsp-1 and p53 expression by western blot analysis.
1×10^6 luciferase-expressing LLC cells were then injected via tail vein into C57Bl6 mice. After 5 days the mice were treated with the 5-amino acid peptide at a dose of 30 mg/kg/day via i.p. injection. After 29 days the animals were sacrificed, at which point the average luciferase activity in the peptide treated mice, as measured by a Xeongoen IVIS system, was 2% that of the luciferase activity in mice treated with a scrambled peptide (FIG. 8).
For experimental metastasis, 7-week old C57BL/6 mice were injected via tail vein with 1×10^5 luciferase-labeled LLC cells. Metastatic growth was monitored over time using bioluminescence imaging performed with mice in a supine position 5 min after D-luciferin injection with a Xenogen IVIS system coupled to Living Image acquisition and analysis software (Xenogen). For BLI plots, photon flux was calculated for each mouse by using the same circular region of interest encompassing the thorax of the mouse.

[4] = test system: primary ovarian cancer cells; assay: Intraperitoneal metastatic ovarian cancer model, bioluminescence; assay type: in vivo, CB-17 SCID mice; settings: 40 mg/kg QD from day 17; after 30 days
Procedure: For metastatic ovarian cancer cell injections, 5×10^6 viable primary ovarian cancer cells were injected into CB-17 SCID mice intraperitoneally in a volume of 0.1 ml. Tumor growth was monitored by live animal bioluminescence imaging (Xenogen) once per week. For in vivo determination of the metastatic burden, mice were anaesthetized and injected intraperitoneally with 75 mg/kg of D-luciferin (100 uL of 30 mg/mL in PBS). Metastatic growth was monitored over time using bioluminescence imaging performed with mice in a supine position 5 min after D-luciferin injection with a Xenogen IVIS system coupled to Living Image acquisition and analysis software (Xenogen). For BLI plots, photon flux was calculated for each mouse by using the same circular region of interest encompassing the abdomen of the mouse.
To determine whether DWLPK (SEQ ID NO: 4) could inhibit or regress existing ovarian metastases 5×10^6 primary ovarian cancer cells were injected intraperitoneally into SCID mice. After 17 days treatment was initiated with DWLPK (SEQ ID NO: 4) at a dose of 40 mg/kg QD, cisplatin at a dose of 2 mg/kg QOD, a combination of DWLPK (SEQ ID NO: 4) and cisplatin at the same doses, or PBS (control). It was observed that DWLPK (SEQ ID NO: 4) treatment completely regressed the metastases in 11/12 after 30 days and the regressed the metastases in the remaining mice by 99% (FIG. 20).

DWLPK [5-amino acid peptide corresponding to residues 36-40 of saposin A]
ability to stimulate Tsp-1 in prostate fibroblasts after removing a terminal residue [1]: increased the ability of the resulting 5-amino acid peptide to stimulate Tsp-1
recruitment of Gr1+ cells in the lungs ([2]; LN4 CM alone or in combination with peptide): identical regardless of the treatment
Tsp-1 expression in the Gr1+ cells ([2]; LN4 CM daily for 6 days i.p. in combination with peptide): more than two fold
average luciferase activity relative to mice treated with a scrambled peptide ([3]; 30 mg/kg/day i.p. from day 5, after 29 days, IVIS): 2%
lung metastases by bioluminescence imaging ([3]; LLC-luc cells via tail vein, compared to scrambled peptide): dramatically reduced lung metastases
mice with completely regressed metastases [4]: 11/12
regression of the metastases in the remaining mice [4]: 99%
